Laboratory results from paper PMC11677235, “Heterologous Production, Purification and Characterization of Two Cold-Active β-D-Galactosidases with Transglycosylation Activity from the Psychrotolerant Arctic Bacterium Arthrobacter sp. S3* Isolated from Spitsbergen Island Soil” (International Journal of Molecular Sciences, 2024).
Where two headings read alike, the source gives them in different places. Blank lines part the entries; values can stand above or below the compound they belong to.

Legend:
Type in all cases: biochemical
[1] = target: T1, Arthrobacter sp. S3* Bgal42 (GH42 β-D-galactosidase) (Arthrobacter sp. ON14, UniProt D9IU57, P2A/G388S/G665D); assay: inhibition of ONPG hydrolysis, absorbance […] nm; conditions: 5 mM monosaccharide, 1-5 mM ONPG, 20 mM potassium phosphate, pH 7.0, 30 °C, read-out: apparent Ki
T1 construct: gene galB
T1 sequence (D9IU57 entry or part of it P2A/G388S/G665D): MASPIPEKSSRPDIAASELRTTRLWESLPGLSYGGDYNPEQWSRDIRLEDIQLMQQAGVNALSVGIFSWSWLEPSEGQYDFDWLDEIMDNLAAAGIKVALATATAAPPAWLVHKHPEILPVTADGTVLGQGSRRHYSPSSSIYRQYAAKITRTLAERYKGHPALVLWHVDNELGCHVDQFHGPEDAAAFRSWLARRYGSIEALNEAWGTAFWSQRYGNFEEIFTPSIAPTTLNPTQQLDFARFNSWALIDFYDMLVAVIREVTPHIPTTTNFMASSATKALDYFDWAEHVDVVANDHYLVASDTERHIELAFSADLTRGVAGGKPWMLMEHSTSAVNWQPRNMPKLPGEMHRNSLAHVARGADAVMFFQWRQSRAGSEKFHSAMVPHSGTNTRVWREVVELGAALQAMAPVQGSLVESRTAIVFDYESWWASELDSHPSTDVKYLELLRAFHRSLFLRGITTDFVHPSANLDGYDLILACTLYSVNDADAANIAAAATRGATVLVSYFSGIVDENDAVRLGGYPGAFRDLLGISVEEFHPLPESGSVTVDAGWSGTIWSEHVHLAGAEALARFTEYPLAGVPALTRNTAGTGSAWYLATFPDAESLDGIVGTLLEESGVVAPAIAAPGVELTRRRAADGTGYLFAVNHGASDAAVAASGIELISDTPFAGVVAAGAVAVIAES

[2] = target: T2, Arthrobacter sp. S3* Bgal2 (GH2 β-D-galactosidase) (Arthrobacter sp. ON14, UniProt D9IU58); assay: o-nitrophenol release, absorbance […] nm, Lineweaver-Burk; conditions: 20 mM potassium phosphate, 50 mM KCl, pH 7.5, 20 °C; read-out: Km (mM) / ONPG
T2 construct: gene galA
T2 sequence (D9IU58 entry or part of it): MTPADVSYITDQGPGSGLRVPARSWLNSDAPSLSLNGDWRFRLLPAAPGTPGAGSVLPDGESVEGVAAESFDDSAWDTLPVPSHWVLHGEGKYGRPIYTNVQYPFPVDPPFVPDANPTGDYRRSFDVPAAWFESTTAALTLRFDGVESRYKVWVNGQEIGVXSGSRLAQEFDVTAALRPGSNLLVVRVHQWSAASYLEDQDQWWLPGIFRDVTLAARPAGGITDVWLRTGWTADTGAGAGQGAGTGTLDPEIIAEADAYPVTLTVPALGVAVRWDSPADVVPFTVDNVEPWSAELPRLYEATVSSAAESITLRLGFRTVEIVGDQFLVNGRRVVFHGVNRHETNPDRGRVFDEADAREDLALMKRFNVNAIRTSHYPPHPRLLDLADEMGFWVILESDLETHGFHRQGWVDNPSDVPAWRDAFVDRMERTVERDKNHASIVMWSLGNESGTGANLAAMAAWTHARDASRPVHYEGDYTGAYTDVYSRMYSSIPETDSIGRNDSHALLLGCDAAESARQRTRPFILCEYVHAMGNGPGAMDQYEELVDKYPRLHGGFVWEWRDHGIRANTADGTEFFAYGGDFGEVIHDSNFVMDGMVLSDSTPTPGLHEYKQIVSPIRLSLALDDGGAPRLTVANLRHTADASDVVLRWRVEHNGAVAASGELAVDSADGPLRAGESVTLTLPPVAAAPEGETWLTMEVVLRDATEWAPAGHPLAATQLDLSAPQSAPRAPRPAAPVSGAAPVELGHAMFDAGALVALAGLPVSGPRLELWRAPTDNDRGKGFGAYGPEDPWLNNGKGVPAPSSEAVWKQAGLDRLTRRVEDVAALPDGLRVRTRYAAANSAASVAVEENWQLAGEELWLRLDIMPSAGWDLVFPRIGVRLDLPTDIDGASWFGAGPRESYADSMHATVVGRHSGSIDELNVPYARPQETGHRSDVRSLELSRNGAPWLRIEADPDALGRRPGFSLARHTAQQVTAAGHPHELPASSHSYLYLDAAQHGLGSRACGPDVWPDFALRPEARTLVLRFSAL
Description: S3* Bgal2 (GH2 β-D-galactosidase)

[3] = target: T2, Arthrobacter sp. S3* Bgal2 (GH2 β-D-galactosidase); assay: glucose release by Glucose (GO) Assay Kit, Lineweaver-Burk; conditions: read-out: Km (mM) / Lactose; 20 mM potassium phosphate, 50 mM KCl, pH 7.5, 20 °C
Description: glucose release by Glucose (GO) Assay Kit, Lineweaver-Burk on Arthrobacter sp. S3* Bgal2 (GH2 β-D-galactosidase)

Ki ([1]; competitive): 2.99 mM
SMILES: OC[C@H]1OC(O)[C@H](O)[C@@H](O)[C@H]1O (stereo partly drawn) [D-galactose]

Ki ([1]; uncompetitive): 6.01 mM
SMILES: OC[C@H]1OC(O)[C@H](O)[C@@H](O)[C@@H]1O (stereo partly drawn) [D-glucose]

Km [2]: 0.32 ± 0.07 mM
SMILES: O=[N+]([O-])c1ccccc1O[C@@H]1O[C@H](CO)[C@H](O)[C@H](O)[C@H]1O [ONPG]

Km [3]: 16.7 ± 0.81 mM
SMILES: OC[C@H]1O[C@@H](O[C@H]2[C@H](O)[C@@H](O)C(O)O[C@@H]2CO)[C@H](O)[C@@H](O)[C@H]1O (stereo partly shown) [lactose]
